Reference: patent US8357350B2, “Annulus fibrosus detection in intervertebral discs using molecular imaging agents” (General Electric Company, priority 2009, dated 2013)
Values belong to the molecule of their own block, whether it stands above or below them.

Assays:
[1] = Absorbance and fluorescence spectra of FM fluorophores in solvents; assay type: physicochemical; settings: for Em nm (MeOH): emission maximum in MeOH; for Em nm (PBS): emission maximum in PBS; for Ex nm (MeOH): excitation maximum in MeOH; for Ex nm (PBS): excitation maximum in PBS
Experimental: (§1) Absorbance and fluorescence spectra of the FM fluorophores were measured in PBS and absolute methanol (MeOH) using fiber-optic HR2000 (200-1100 nm) and USB2000FL (350-1000 nm) spectrometers (Ocean Optics, Dunedin, Fla.), respectively. Fluorescence excitation was provided by a 2 mW, 532 nm laser diode. The fluorescence and absorbance spectra of FORMULA II and FORMULA IA were collected in dimethyl sulfoxide (DMSO) and fetal bovine serum (FBS), as well as MeOH and PBS. The quantum yield of FORMULA II and FORMULA IA in DMSO, MeOH, FBS and PBS was measured by comparing the integrated fluorescence emission of the fluorophores in each solvent to the emission of Alexa Fluor 555 (Invitrogen) in PBS (quantum yield=10%) as a reference standard under conditions of matched absorbance at the excitation wavelength. The LogD of each FM fluorophore at pH 7.5 was calculated using Marvin 5.0.3 software (ChemAxon, Budapest, Hungary).

[2] = system: dorsal root ganglia; assay: FM fluorophore uptake, intraoperative fluorescence imaging; assay type: in vivo, mice and rats; settings: 5 mg/kg mice, 0.5 mg/kg rats IP, 16 hours before imaging; signal normalized to muscle, vs vehicle control; note: key: +: Positive contrast was concluded if the nerve-to-muscle contrast ratio of FM fluorophore-injected animals was elevated relative to control animals
Experimental: (§2) Imaging was carried out at near infrared wavelenghts using a 400- to 700-nm “white” light (0.5 mW/cm^2) and a 725- to 775-nm NIR fluorescence excitation light (5 mW/cm^2). Fluorescence images were collected using exposure times ranging from 500 to 2000 msec. All images collected for comparison between vehicle-injected control animals and FM fluorophore-injected animals had the same exposure time and normalization. Color video images were collected on a separate optical channel using custom designed software. The excitation and emission LEDs and filter used for the FM fluorophores and Pam800 in the intraoperative imaging system are described as follows. For fluorescence excitation of FM 1-43, FM 2-10, FM 1-43FX and Formula IA, sixty 5-mm 470 nm LEDs ([…], Inc., Kyoto, Japan) fitted with 470±20 nm band pass (BP) excitation filters (Chroma Technology, Rockingham, Vt.) in custom holders were used, which produced a fluence rate on the imaging surface of 0.56 mW/cm^2. For fluorescence excitation of Formula II, FM 4-64, FM 4-64FX and FM 5-95, sixty 5-mm 535 nm LEDs fitted with 525±25 nm BP excitation filters were used, which produced a fluence rate on the imaging surface of 0.34 mW/cm^2. A 610±38 nm BP filter was used to detect fluorescence emission of FM 1-43, FM 2-10, Formula II, FM 1-43FX and Formula IA. To detect fluorescence emission of FM 4-64, FM 4-64FX and FM 5-95 a 720 nm long pass (LP) filter was used. For fluorescence excitation of Pam800, 348 5-mm 760 nm LEDs fitted with 764±17 nm BP excitation filters were used, which produced a fluence rate on the imaging surface of 8.73 mW/cm^2 and fluorescence emission was detected using a 824±24 nm BP emission filter. To assess the structure-activity relationship of the FM fluorophores, each molecule was administered at 5 mg/kg to mice and 0.5 mg/kg to rats (n=4 per group) in 10% DMSO and 90% PBS IP 16 hours before imaging with the intraoperative system. The fluorescence signal from the spinal cord, intervertebral discs, dorsal root ganglia, trigeminal ganglia, optic nerve, brain and femoral nerve were normalized to muscle signal in the same image. This normalization ratio was then compared between FM fluorophore-injected animals and vehicle-injected control animals.

[3] = system: trigeminal ganglia; assay: as above; assay type: in vivo, mice and rats; settings: 5 mg/kg mice, 0.5 mg/kg rats IP, 16 hours before imaging; signal normalized to muscle, vs vehicle control; note: key: +: Positive contrast was concluded if the nerve-to-muscle contrast ratio of FM fluorophore-injected animals was elevated relative to control animals
Experimental: as §2

[4] = system: dorsal root ganglia; assay: Histology and fluorescence microscopy of dorsal root ganglia; assay type: in vivo; settings: rat, 0.5 mg/kg, 16 h post-IP
Experimental: Tissues from mice, rats and pig were preserved for microscopic assessment and localization of fluorescence signal. Tissues were extracted from the animal and placed in 2% paraformaldehyde in PBS for 2 to 4 hours before mounting in Tissue-Tek OCT compound (Fisher Scientific, Pittsburgh, Pa. ) and flash-freezing in liquid nitrogen. Each sample was cryo-sectioned (12 μm per slice); one slide was stained with hematoxylin and eosin (H&E) and a consecutive section was used for fluorescence microscopy. For fluorescence microscopy, serial sections were imaged on a Nikon TE 300 microscope system equipped with a mercury excitation source (Chiu Technical Corporation, Kings Park, N.Y.), Orca-ER 12-bit camera (Hamamatsu, Bridgewater, N.J.), and IPLab software (BD Biosciences, Rockville, Md.), using the following excitation and emission filters combinations. To obtain fluorescence images of FM 4-64, the mercury light source was passed through a 540±15 nm BP excitation filter, 700 nm dichroic beam splitter and 720 nm LP emission filter. To obtain fluorescence images of FM 1-43FX and Formula IA, the mercury light source was passed through a 460±25 nm BP excitation filter, 505 nm dichroic beam splitter and a 610±38 nm BP emission filter. Exposure times were adjusted between 5 and 2000 ms for fluorescence images.

[5] = Fluorescence quantum yield versus Alexa Fluor 555 reference; assay type: physicochemical; settings: highest in FBS among DMSO, MeOH, PBS
Experimental: as §1

[6] = system: intervertebral discs; assay: FM fluorophore uptake, intraoperative fluorescence imaging; assay type: in vivo, mice and rats; for Uptake: Intervertebral Disc: key: +: Positive contrast was concluded if the nerve-to-muscle contrast ratio of FM fluorophore-injected animals was elevated relative to control animals
Experimental: as §2

- Em nm (MeOH) [1]: 811 nm
- Em nm (PBS) [1]: 808 nm
- Ex nm (MeOH) [1]: 546 nm
- Ex nm (PBS) [1]: 507 nm
SMILES: CCN(CC)c1ccc(/C=C/C=C/C=C/c2cc[n+](CCC[N+](CC)(CC)CC)cc2)cc1.[Br-].[Br-] [FM 4-64]
- Uptake: Dorsal Root Ganglia [2]: +
- Uptake: Trigeminal Ganglia [3]: +
- microscopic localisation of fluorescence in dorsal root ganglion [4]: significant fluorescence intensity was seen in the dense cellular regions

- blue shift of emission maximum in FBS ([1]; FBS compared to DMSO, MeOH or PBS): over 100 nm
- Em nm (MeOH) [1]: 813 nm
- Em nm (PBS) [1]: 808 nm
- Ex nm (MeOH) [1]: 549 nm
- Ex nm (PBS) [1]: 519 nm
- fluorescence quantum yield, times higher in FBS [5]: 10 times
SMILES: CCCCN(CCCC)c1ccc(/C=C/C=C/C=C/c2cc[n+](CCC[N+](CC)(CC)CC)cc2)cc1.[Br-].[Br-] [Formula II, 4-((1 E,3E,5E)-6-(4-(dibutylamino)phenyl)hexa-1,3,5-trienyl)-1-(3-(triethylammonio)propyl)pyridinium dibromide]
- Uptake: Trigeminal Ganglia [3]: +

- Em nm (MeOH) [1]: 622 nm
- Em nm (PBS) [1]: 628 nm
- Ex nm (MeOH) [1]: 507 nm
- Ex nm (PBS) [1]: 490 nm
SMILES: CCN(CC)c1ccc(/C=C/c2cc[n+](CCC[N+](CC)(CC)CC)cc2)cc1.[Br-].[Br-] [FM 2-10]
- Uptake: Trigeminal Ganglia [3]: +

Further lines, the molecule ahead of its results:

SMILES: CCCCN(CCCC)c1ccc(/C=C/c2cc[n+](CCC[N+](CC)(CC)CC)cc2)cc1.[Br-].[Br-] [FM 1-43]
- Em nm (MeOH) [1]: 624 nm
- Em nm (PBS) [1]: 631 nm
- Ex nm (MeOH) [1]: 509 nm
- Ex nm (PBS) [1]: 493 nm
- Uptake: Dorsal Root Ganglia [2]: +
- Uptake: Intervertebral Disc ([6]; 5 mg/kg mice, 0.5 mg/kg rats IP, 16 hours before imaging, signal normalized to muscle, vs vehicle control): +
- contrast in the intervertebral discs ([6]; IP administration to mice and rats): positive contrast
- Uptake: Trigeminal Ganglia [3]: +

SMILES: CCN(CC)c1ccc(C=CC=CC=Cc2cc[n+](CCC[N+](C)(C)C)cc2)cc1.[Br-].[Br-] [FM 5-95]
- Em nm (MeOH) [1]: 809 nm
- Em nm (PBS) [1]: 809 nm
- Ex nm (MeOH) [1]: 542 nm
- Ex nm (PBS) [1]: 490 nm
- Uptake: Dorsal Root Ganglia [2]: +
- Uptake: Trigeminal Ganglia [3]: +
